In ChEMBL document CHEMBL4390697, “Ginnalin B induces differentiation markers and modulates the proliferation/differentiation balance via the upregulation of NOTCH1 in human epidermal keratinocytes” (Bioorg Med Chem, 2019):
The source made the active and inactive calls. The calls are words filed in the database; no cut-off is given here.

Legend:
Homo sapiens [1] = species on record: Homo sapiens; assay: (§1) Induction of keratin-10 expression in human PHK160b cells at 50 uM incubated for 48 hrs by quantitative RT-PCR analysis relative to untreated control; type: functional
[2] = Inhibition of keratin-10 expression in human PHK160b cells at 50 uM incubated for 48 hrs by quantitative RT-PCR analysis relative to untreated control; type: functional
[3] = Cytotoxicity against human PHK160b cells assessed as reduction in cell viability incubated for 48 hrs by LDH release assay; type: cell-based
[4] = Induction of apoptosis in human PHK160b cells assessed as induction of multiple fragmented segregated bodies at 100 uM incubated for 48 hrs Hoechst 33,342 staining based fluorescent microscopy; type: cell-based
[5] = Cell cycle arrest in human PHK160b cells assessed as accumulation at G0/G1 phase at 50 uM incubated for 48 hrs by propidium iodide staining-based flow cytometry; type: functional
[6] = Cell cycle arrest in human PHK160b cells assessed as accumulation at G2/M phase at 50 uM incubated for 48 hrs by propidium iodide staining-based flow cytometry; type: functional
[7] = as §1; type: functional
Homo sapiens [8] = species on record: Homo sapiens; assay: Induction of keratin-10 expression in human PHK160b cells incubated for 48 hrs by quantitative RT-PCR analysis relative to untreated control; type: functional, cell-based
Homo sapiens [9] = species on record: Homo sapiens; assay: Induction of keratin-1 expression in human PHK160b cells incubated for 48 hrs by quantitative RT-PCR analysis relative to untreated control; type: functional, cell-based
Zone of skin [10] = assay: Induction of keratinocyte differentiation in human EPI-212 EpiDerm skin model assessed as increase in keratin-10 expression at 100 uM incubated for 7 days by DAB based immunohistochemical staining analysis (Rvb= 35.8%); type: functional
Zone of skin [11] = assay: Induction of keratinocyte differentiation in human EPI-212 EpiDerm skin model assessed as increase in filaggrin expression at 100 uM incubated for 7 days by DAB based immunohistochemical staining analysis (Rvb= 20%); type: functional
[12] = Cytotoxicity against human PHK160b cells assessed as reduction in cell viability at 100 uM incubated for 24 hrs by MTT assay; type: cell-based
[13] = Cytotoxicity against human PHK160b cells assessed as reduction in cell viability at 10 to 1000 uM incubated for 48 hrs by LDH release assay; type: cell-based
[14] = Cell cycle arrest in human PHK160b cells assessed as accumulation at G0/G1 phase at 100 uM incubated for 48 hrs by propidium iodide staining-based flow cytometry; type: functional
[15] = Cell cycle arrest in human PHK160b cells assessed as accumulation at G2/M phase at 100 uM incubated for 48 hrs by propidium iodide staining-based flow cytometry; type: functional
[16] = Cell cycle arrest in human PHK160b cells assessed as increase in expression of p21 at 0 to 100 uM incubated for 72 hrs by RT-PCR method; type: functional
[17] = Cell cycle arrest in human PHK160b cells assessed as increase in expression of NOTCH1 at 100 uM incubated for 72 hrs by RT-PCR method relative to control; type: functional
Homo sapiens [18] = species on record: Homo sapiens; assay: Cell cycle arrest in human PHK160b cells assessed as increase in expression of p21 incubated for 72 hrs by western blot method; type: functional, cell-based
Homo sapiens [19] = species on record: Homo sapiens; assay: Cell cycle arrest in human PHK160b cells assessed as decrease in expression of cyclin D1 incubated for 72 hrs by western blot method; type: functional, cell-based
Homo sapiens [20] = species on record: Homo sapiens; assay: Cell cycle arrest in human PHK160b cells assessed as decrease in expression of cyclin E incubated for 72 hrs by western blot method; type: functional, cell-based
Homo sapiens [21] = species on record: Homo sapiens; assay: Cell cycle arrest in human PHK160b cells assessed as increase in expression of NOTCH 1 at 50 to 100 uM incubated for 72 hrs by western blot method; type: functional, cell-based
Homo sapiens [22] = species on record: Homo sapiens; assay: Induction of filaggrin expression in human PHK160b cells incubated for 48 hrs by quantitative RT-PCR analysis relative to untreated control; type: functional, cell-based
[23] = Induction of keratin-10 expression in human PHK160b cells at 100 uM incubated for 48 hrs by quantitative RT-PCR analysis relative to untreated control; type: functional
[24] = Induction of keratin-1 expression in human PHK160b cells at 100 uM incubated for 48 hrs by quantitative RT-PCR analysis relative to untreated control; type: functional
[25] = Induction of filaggrin expression in human PHK160b cells at 100 uM incubated for 48 hrs by quantitative RT-PCR analysis relative to untreated control; type: functional
[26] = Cytotoxicity against human PHK160b cells assessed as reduction in cell growth at 100 uM incubated for 24 to 96 hrs by MTT assay; type: cell-based
[27] = Cytotoxicity against human PHK160b cells assessed as reduction in cell growth at 100 uM incubated up to 96 hrs by MTT assay; type: cell-based

COc1cc(C(=O)OC[C@H]2OC[C@H](O)[C@@H](O)[C@@H]2O)cc(OC)c1OC
Activity (Homo sapiens [1]): inactive

O=C(O[C@H]1CO[C@H](CO)[C@@H](O)[C@@H]1O)c1cc(O)c(O)c(O)c1
Activity (Homo sapiens [1]): Active

O=C(O[C@H]1[C@H](O)[C@@H](CO)OC[C@@H]1O)c1cc(O)c(O)c(O)c1
Activity (Homo sapiens [1]): Active

O=C(OC[C@H]1OC[C@H](OC(=O)c2cc(O)c(O)c(O)c2)[C@@H](OC(=O)c2cc(O)c(O)c(O)c2)[C@@H]1OC(=O)c1cc(O)c(O)c(O)c1)c1cc(O)c(O)c(O)c1
fold change (FC) [2]: 0.64

COc1cc2c(c(OC)c1OC)-c1ccc(OC)c(=O)cc1[C@@H](NC(C)=O)CC2 [COLCHICINE]
Activity [3]: Dose-dependent effect | Activity [4]: Toxic | Activity [5]: 18% | Activity [6]: 74.6%

O=C(O[C@H]1[C@H](O)[C@@H](O)CO[C@@H]1CO)c1cc(O)c(O)c(O)c1
Activity (Homo sapiens [1]): Active

O=C(OC[C@H]1OC[C@H](O)[C@@H](O)[C@@H]1O)c1cc(O)c(O)c(O)c1 [GINNALIN B]
fold change (FC) [7]: 1.9 | Activity (Homo sapiens [8]): Dose-dependent effect | Activity (Homo sapiens [9]): Dose-dependent effect | Activity (Zone of skin [10]): 42.4% | Activity (Zone of skin [11]): 56.6% | Activity [12]: Non-Toxic | Activity [13]: Non-Toxic | Activity [14]: 66% | Activity [15]: 20% | fold change (FC) [16]: 1.4 | fold change (FC) [17]: 1.9 | Activity (Homo sapiens [18]): Dose-dependent effect | Activity (Homo sapiens [19]): Dose-dependent effect | Activity (Homo sapiens [20]): Dose-dependent effect | Activity (Homo sapiens [21]): Active | Activity (Homo sapiens [22]): Dose-dependent effect | fold change (FC) [23]: 1.7 | fold change (FC) [24]: 2.9 | fold change (FC) [25]: 5.2 | Activity [26]: Toxic | Activity [4]: Non-Toxic

O=C(OC[C@H]1OC[C@H](O)[C@@H](O)[C@@H]1O)c1ccccc1
Activity (Homo sapiens [1]): inactive

O=C(OC[C@H]1OC[C@H](O)[C@@H](O)[C@@H]1OC(=O)c1cc(O)c(O)c(O)c1)c1cc(O)c(O)c(O)c1
fold change (FC) [7]: 2.18

O=C(O[C@H]1[C@H](O)[C@@H](OC(=O)c2cc(O)c(O)c(O)c2)CO[C@@H]1CO)c1cc(O)c(O)c(O)c1 [MAPLEXIN D]
fold change (FC) [7]: 2.2

OC[C@H]1OC[C@H](O)[C@@H](O)[C@@H]1O [1,5-Anhydrosorbitol]
Activity (Homo sapiens [1]): inactive | Activity [27]: Non-Toxic
